Source: patent publication US5773263A, “Production aflastatin A from streptomyces sp., a pharmaceutical composition and methods of use” (Morinaga & Co., Ltd., priority 1996, dated 1998)
Converted amounts (≈) assume the structure as drawn. “And” between values parts separate entries of the source, which are not always exact repeats. Identical values can stand only once.

Key:
[1] = tested on: Bacillus subtilis IAM 1145; test: Antimicrobial spectrum, agar dilution MIC; type: cell-based; conditions: medium A, 37 °C, 24 hrs
Procedure: (§1) Conditions for the measurements of the antimicrobial sepctra are as follows:
(§2) 80 mg of aflastatin A was dissolved in 4 ml of dimethyl sulfoxide (DMSO). This solution was diluted with DMSO to prepare a dilution series by two times as test solutions. The test solutions were filtrated with a filter and sterilized. 50 μl of each of them was added to 10 ml of a sterilized agar medium at 60° C. to prepare a dilution series of agar media. To each of the agar media, test strains were inoculated for antimicrobial activity. Media used for the tests are as follows:
(§3) A: Nutrient agar (manufactured by Nihon Suisan K.K.)

[2] = tested on: Escherichia coli IFO 14249; test: Antimicrobial spectrum, agar dilution MIC; type: cell-based; conditions: medium A, 37 °C, 24 hrs
Procedure: as §1, §2, §3

[3] = tested on: Psuedomonas aeruginosa IAM 1514; test: Antimicrobial spectrum, agar dilution MIC; type: cell-based; conditions: medium A, 37 °C, 24 hrs
Procedure: as §1, §2, §3

[4] = tested on: Staphylococcus aureus IFO 13276; test: Antimicrobial spectrum, agar dilution MIC; type: cell-based; conditions: medium A, 37 °C, 24 hrs
Procedure: as §1, §2, §3

[5] = tested on: Candida albicans IFO 1594; test: Antimicrobial spectrum, agar dilution MIC; type: cell-based; conditions: medium C, 30 °C, 48 hrs
Procedure: as §1, §2
(§4) C: Sabouraud agar (manufactured by Nihon Suisan K.K.)

[6] = tested on: Saccharomyces cerevisiae IFO 0250; test: Antimicrobial spectrum, agar dilution MIC; type: cell-based; conditions: medium C, 30 °C, 48 hrs
Procedure: as §1, §2, §4

[7] = tested on: Trichophyton mentagrophytes IFO 5809; test: Antimicrobial spectrum, agar dilution MIC; type: cell-based; conditions: medium C, 30 °C, 48 hrs
[8] = tested on: Fusarium graminearum ATCC 34909; type: cell-based
[9] = tested on: Aspergillus parasiticus NRRL 2999; test: Antimicrobial spectrum, agar dilution MIC; type: cell-based; conditions: medium B, 27 °C, 48 hrs
Procedure: as §1, §2
B: Potato dextrose agar (manufactured by Nihon Suisan K.K.)

[10] = tested on: Pyricularia oryzae IFO 30732; type: cell-based
Solubility = type: physicochemical
ddy series male mice = test: Toxicity, single administration to mice; type: in vivo
Procedure: Aflastatin A was suspended in a 0.25% carboxymethylcellulose solution and the suspension was administered to ddy series male mice. […] By single oral administration, no mice died in an administered amount of 1,000 mg/kg or less.

[11] = tested on: Aspergillus parasiticus NRRL 2999; type: cell-based
[12] = tested on: Aspergillus parasiticus NRRL 2999; design: key: -: no growth; +: growth delayed; ++: fine growth; conditions: in vivo
adenocarcinoma 755 = test: Antitumor activity, subcutaneously transplanted adenocarcinoma 755 in BDFI mice; type: in vivo, mouse; conditions: for Antitumor activity / Weight of tumor: four successive days, day 14; for Antitumor activity: control 100.0; for Weight of tumor: mean ± SD of six mice, control 1617.8 ± 179.07
Procedure: BDFI mice having a weight of from 21.0 to 24.3 g were divided into four groups each being 6 mice. A physiological saline suspension of adenocarcinoma 755 cells collected from subcultured 11th day mouse and adjusted, was transplanted subcutaneously at a right ventral portion of each mouse at a rate of 5×10^5 cells/0.5 ml/mouse.
The day of transplantation was regarded as the day 0. From the next day, intraperitoneal administration was carried out once a day for four successive days to each group at a rate of aflastatin A administration of 0.3 mg/kg/day, 1 mg/kg/day, or 3 mg/kg/day. The aflastatin A was suspended in a 0.25% carboxymethyl cellulose solution (manufactured by Nakarai Tesk) and administered at a dose of 10 ml/kg. The rest of the four groups was used as a control.
By the day 14, general conditions were observed every day, and the mice were clubbed to death at the day 14. Solid tumors were collected and their wet weights were measured. From the measured tumor weights, inhibitory ratios against the control group were calculated and antitumor activities were determined. The tumor weight is represented by an average of six mice±standard deviation.

CCCCCCCCCC(O)C[C@]1(O)O[C@H](CC(O)C(O)C(O)C(O)C(O)CC(O)CC(O)CC(O)C(C)C(O)C(C)C(O)CC(O)C(C)C(O)C(C)C(O)C(C)C(O)C(O)CC(C)CC(C)/C=C(C)/C(O)=C2/C(=O)C(C)N(C)C2=O)[C@@H](O)[C@H](O)[C@@H]1O (stereo partly drawn) [aflastatin A]
MIC [1]: 0.39 µg/mL (≈ 0.31 µM) | MIC [2]: > 100 µg/mL | MIC [3]: > 100 µg/mL | MIC [4]: 0.78 µg/mL (≈ 0.62 µM) | MIC [5]: 0.39 µg/mL (≈ 0.31 µM) | MIC [6]: < 0.19 µg/mL | MIC [7]: 0.39 µg/mL (≈ 0.31 µM) | MIC [8]: > 100 µg/mL | MIC [9]: > 100 µg/mL | MIC [10]: > 0.19 µg/mL | Solubility (Solubility; aqueous butanol): slightly soluble | Solubility (Solubility; aqueous ethanol): slightly soluble | Solubility (Solubility; dimethyl sulfoxide): Soluble | Solubility (Solubility; glycerol): slightly soluble | Solubility (Solubility; methanol): slightly soluble | Solubility (Solubility; other organic solvents): practically insoluble | Solubility (Solubility; water): practically insoluble | LD50 (ddy series male mice; single intraperitoneal administration, suspended in 0.25% carboxymethylcellulose): 6.17 mg/kg | Mortality (ddy series male mice; single oral administration, 1,000 mg/kg or less): no mice died | Colony diameter [11]: 7.8 ± 0.2 cm and 6.5 ± 0.2 cm and 5.5 ± 0.3 cm | Growth of strains [12]: ++ | Antitumor activity (adenocarcinoma 755; 0.3 mg/kg/day i.p.): 42.0% | Weight of tumor (adenocarcinoma 755; 0.3 mg/kg/day i.p.): 680.2 ± 176.63 mg | Antitumor activity (adenocarcinoma 755; 1 mg/kg/day i.p.): 24.3% | Weight of tumor (adenocarcinoma 755; 1 mg/kg/day i.p.): 392.8 ± 87.07 mg | Dose assessment (adenocarcinoma 755; 3 mg/kg/day i.p.): overdose | Mortality (printed in the column weight of tumor) (adenocarcinoma 755; 3 mg/kg/day i.p.): All mice died by the day 3
